Experimental data reported in patent publication US4880007A, “Contrast agent for NMR scanning” (Amersham International PLC, priority 1985, dated 1989).

How the values were obtained:
[1] = Binding of ligands to hydroxy apatite, ^31 P NMR study
Method: (§1) 1 ml of hydroxy apatite solution 250 mg/ml in water was used for all the binding assays to described.
The solid from 1 ml of hydroxy apatite solution was isolated by centrifugation and the supernatant removed. 0.41 ml of a 0.1M solution of ligand at pH 7.5±0.1 were than added and the solid resuspended. The solid was once more spun down and the supernatant analysed by ^31 P NMR. This enabled the amount of bound phosphonate to be analysed.

[2] = Binding of chromium complexes to hydroxy apatite, by T1 relaxation measurement; details: 0.4 ml of 50 mM metal complex; HAP 250 mg/ml
Method: as §1
The procedure above was followed but this time 0.4 ml of 50 mM metal complex solution was added and the solid resuspended. The supernatant was analysed by T1 using T1 relaxation measurements and the amount bound to hydroxy apatite calculated.

[3] = ^153 Gd biodistribution, IV study in rats; type: in vivo, male rats; details: for effect of added Ca^2+ or dimethylglucamine on bone uptake: Ca^2+ and dimethylglucamine added separately to aqueous solutions; for Bladder & Urine / Blood / Bone / Carcass / Injection Site / Kidneys / Liver & Spleen / Lung / Muscle / Ratio Bone/Blood / Ratio Bone/Liver & Spleen / Ratio Bone/Muscle / Stomach & Gut / usefulness as bone scanning / bone-seeking agent: rat, IV, two hours post injection
Description: This example uses ^153 Gd to compare the biodistribution properties of various complexes in rats.
Using ^153 Gd, a comparison was made of certain properties of aqueous "solutions" of
The biodistribution data there reported were obtained by means of an IV study in male rats which were sacrified two hours post injection. % activity per organ is given, together with ratios of bone to organ.
It is known that Ca^2+ can bind to di- and poly-phosphonates, and that this is one reason why these materials are toxic. It is also known that dimethylglucamine can be used to solubilize complexes of this kind.

[4] = Solubility / precipitation of Gd complexes; type: physicochemical
Method: Equal volumes of 1 mM methylene diphosphonic acid and 0.5 mM Gd^3+ were used to prepare a complex designated Gd.MDP.
Equal volumes of 10 mM ethane-1-hydroxy-1,1-diphosphonic acid and 5 mM Gd^3+ were used to prepare a complex designated Gd.EHDP.

[5] = ligand 0.1M, 0.41 ml, pH 7.5±0.1, HAP 250 mg/ml, ^31 P NMR

O=P(O)(O)CN(CCO)CP(=O)(O)O [AEDMP, Amino ethanol dimethylene phosphonate]
% Bound to HAP [1, 5]: 50.9%

O=C(O)CCCCCN(CP(=O)(O)O)CP(=O)(O)O [AHADMP, 6-amino hexanoic acid dimethylene phosphonate]
% Bound to HAP [1, 5]: 89.7%

O=P(O)(O)CN(CCO)CP(=O)(O)O.O=P(O)(O)CN(CCO)CP(=O)(O)O.[Cr] [Cr(AEDMP)2]
% Bound [2]: 96%

O=C(O)CCCCCN(CP(=O)(O)O)CP(=O)(O)O.O=C(O)CCCCCN(CP(=O)(O)O)CP(=O)(O)O.[Cr] [Cr(AHADMP)2]
% Bound [2]: 96%

O=C(O)CCCN(CP(=O)(O)O)CP(=O)(O)O.O=C(O)CCCN(CP(=O)(O)O)CP(=O)(O)O.[Cr] [Cr(GABADMP)2]
% Bound [2]: 90%

O=C(O)CN(CP(=O)(O)O)CP(=O)(O)O.O=C(O)CN(CP(=O)(O)O)CP(=O)(O)O.[Cr] [Cr(GDMP)2]
% Bound [2]: 80%

O=P(O)(O)CN(Cc1cccc(CN(CP(=O)(O)O)CP(=O)(O)O)c1)CP(=O)(O)O.[Cr] [CrMXDTMP]
% Bound [2]: 96%

O=C(O)CCCN(CP(=O)(O)O)CP(=O)(O)O [GABADMP, Gamma amino butyric acid dimethylene phosphonate]
% Bound to HAP [1, 5]: 77.8%

O=C(O)CN(CP(=O)(O)O)CP(=O)(O)O [GDMP, Glycine dimethylene phosphonate]
% Bound to HAP ([1]; pH 7.5): 88.2%

O=P(O)(O)CN(CCN(CP(=O)(O)O)CP(=O)(O)O)CP(=O)(O)O.[Gd] [Gd.EDTMP]
effect of added Ca^2+ or dimethylglucamine on bone uptake [3]: neither addition had a significant effect | Bladder & Urine [3]: 45.8 % activity per organ | Blood [3]: 0.6 % activity per organ | Bone [3]: 45.2 % activity per organ | Carcass [3]: 3.5 % activity per organ | Injection Site [3]: 2.1 % activity per organ | Kidneys [3]: 0.4 % activity per organ | Liver & Spleen [3]: 1.4 % activity per organ | Lung [3]: 0.1 % activity per organ | Muscle [3]: 1.1 % activity per organ | Ratio Bone/Blood [3]: 173.0 | Ratio Bone/Liver & Spleen [3]: 35.2 | Ratio Bone/Muscle [3]: 491.2 | Stomach & Gut [3]: 1.9 % activity per organ | usefulness as bone scanning / bone-seeking agent [3]: good bone-seeking agent

CC(O)(P(=O)(O)O)P(=O)(O)O.[Gd] [Gd.EHDP]
effect of added Ca^2+ or dimethylglucamine on bone uptake [3]: neither addition had a significant effect | Bladder & Urine [3]: 24.0 % activity per organ | Blood [3]: 21.45 % activity per organ | Bone [3]: 22.64 % activity per organ | Carcass [3]: 0.01 % activity per organ | Injection Site [3]: 2.91 % activity per organ | Kidneys [3]: 1.05 % activity per organ | Liver & Spleen [3]: 11.29 % activity per organ | Lung [3]: 1.55 % activity per organ | Muscle [3]: 13.8 % activity per organ | Ratio Bone/Blood [3]: 1.24 | Ratio Bone/Liver & Spleen [3]: 2.04 | Ratio Bone/Muscle [3]: 14.07 | Stomach & Gut [3]: 4.21 % activity per organ | usefulness as bone scanning / bone-seeking agent [3]: not useful as bone scanning agents | pH needed to avoid precipitation ([4]; equal volumes 10 mM ligand and 5 mM Gd^3+): above 7

O=P(O)(O)CP(=O)(O)O.[Gd] [Gd.MDP]
Bladder & Urine [3]: 1.0 % activity per organ | Blood [3]: 0.1 % activity per organ | Bone [3]: 3.1 % activity per organ | Carcass [3]: 0.7 % activity per organ | Injection Site [3]: 0.5 % activity per organ | Kidneys [3]: 0.3 % activity per organ | Liver & Spleen [3]: 93.9 % activity per organ | Lung [3]: 0.4 % activity per organ | Muscle [3]: 0.3 % activity per organ | Ratio Bone/Blood [3]: 33.2 | Ratio Bone/Liver & Spleen [3]: 0.0 | Ratio Bone/Muscle [3]: 80 | Stomach & Gut [3]: 0.0 % activity per organ | usefulness as bone scanning / bone-seeking agent [3]: not useful as bone scanning agents | solubility ([4]; around physiological pH's): poor solubility properties

O=P(O)(O)CN(Cc1cccc(CN(CP(=O)(O)O)CP(=O)(O)O)c1)CP(=O)(O)O [MXDTMP, Meta-xylene diamine tetramethylene phosphonate]
% Bound to HAP [1, 5]: 84.1%

O=P(O)(O)CN(Cc1ccc(CN(CP(=O)(O)O)CP(=O)(O)O)cc1)CP(=O)(O)O [PXDTMP, Para-xylene diamine tetramethylene phosphonate]
% Bound to HAP [1, 5]: 88.0%

[153Gd+3].[Cl-].[Cl-].[Cl-] [^153 Gd.Cl3]
Bladder & Urine [3]: 12.5 % activity per organ | Blood [3]: 3.7 % activity per organ | Bone [3]: 38.6 % activity per organ | Carcass [3]: 1.8 % activity per organ | Injection Site [3]: 3.4 % activity per organ | Kidneys [3]: 2.5 % activity per organ | Liver & Spleen [3]: 32.5 % activity per organ | Lung [3]: 0.6 % activity per organ | Muscle [3]: 4.0 % activity per organ | Ratio Bone/Blood [3]: 12.2 | Ratio Bone/Liver & Spleen [3]: 1.1 | Ratio Bone/Muscle [3]: 83 | Stomach & Gut [3]: 3.9 % activity per organ
